In experiment [1] the target is T1, GPR84 (Homo sapiens, UniProt Q9NQS5).
T1 construct: expressed in transfected cells; membranes used
The experiment is described as follows: GTPγS binding assay (GPR84). The class given is biochemical. Particulars: membranes from stable cell line over expressing GPR84; 3,3′ di indolylmethane at EC80. The method in brief: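 Membranes (20 μg/well) from a stable GPR84-overexpressing line, pre-incubated with 0.1 μM GDP for 15 min at 4° C, mixed with 0.1 nM [35S]GTPγS and WGA SpA beads in 20 mM HEPES pH 7.4, 5 mM MgCl2, 250 mM NaCl, 0.05% BSA, 75 ug/mL saponin; 90 min at room temperature, then scintillation counting.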
(In general: Binding of GTPγS marks nucleotide exchange on a G protein.)

Experiment [2] has as its system human neutrophils. As to the kind of experiment: Human neutrophil migration assay (embelin-induced). The class given is cell-based. Particulars: neutrophils from human buffy coat, 30 min compound pre-incubation, migration towards embelin at EC80 for 1 h, ATPlite readout, read-out: human neutrophil migration inhibition (Neutrophils). On the procedure: 2. Cellular Assays 2.1. Human Neutrophil Migration Assay
The effect of agonists or antagonists for GPR84 can therefore be assayed in a neutrophil migration test. In the neutrophil migration assay, neutrophils, freshly isolated from buffy coats from human volunteers, are treated with a compound for 30 minutes. Subsequently, the neutrophils are transferred to the upper wells of a Corning HTS transwell 96 permeable support system, of which the lower wells are filled with a embelin solution at EC80 (concentration which gives 80% of the activity of GPR84). After 1 h of incubation, migration of the neutrophils towards embelin in the lower compartment can be quantified by measuring the ATP-content of the lower wells using the ATPlite luminescence ATP detection assay system (Perkin Elmer, Cat. No.: 436110).
A human buffy coat is diluted with an equal volume of ice cold DPBS. 20 mL of the diluted buffy coat is gently mixed with 4 mL of ACD buffer (140 mM citric acid, 200 mM sodium citrate and 220 mM dextrose). Then, 12 mL of the 6% dextran/0.9% NaCl solution (15 g dextran T2000 and 2.25 g NaCl dissolved in 250 mL H2O) is added to the mixture and the samples are inverted gently up to 20 times. The total volume was transferred to a new recipient and incubated at room temperature for 1 h for complete separation of the two phases to occur. The yellowish supernatant is then transferred to a clean centrifugation tube and centrifuged for 12 minutes at 1300 rpm and 4° C. After centrifugation, the supernatant is discarded and the remaining cell pellet is rapidly resuspended in 12 mL of ice-cold H2O for red blood cell lysis to occur. After 20 seconds, 4 mL of ice-cold 0.6 M KCl is added. Samples are mixed carefully and centrifuged for 6 minutes at 1300 rpm, 4° C. The supernatant is discarded and the red blood cell lysis procedure is repeated one more time. Subsequently, the cell pellet is resuspended in 4 mL of DPBS and layered over 5 mL of Lymphoprep (Nycomed Pharma, Cat. No.: 1114545) in a 15 mL centrifuge tube. After centrifugation for 12 min at 1300 rpm, 4° C., the supernatant is removed and the cell pellet, containing the neutrophils, is resuspended in 25 mL chemotaxis buffer (RPMI 1640 medium, supplemented with 10 mM HEPES; freshly made for each experiment)
A cell suspension of 8.9×10^6 cells per milliliter is prepared. 20 μL of compound solution in chemotaxis buffer is added to 180 μL cell suspension. The mixture is incubated at 37° C. for 30 minutes with intermediate resuspension of the cells after 15 minutes. Following this, 70 μL cell suspension is transferred to the upper compartment of a Corning HTS transwell 96 permeable support system with 5.0 μm pore size polycarbonate membrane (Corning, Cat. No.: 3387). The receiver well of the transwell system is then filled with 200 μL chemotaxis buffer containing compound and chemotactic agent (embelin). After incubation at 37° C. in 5% CO2 for 1 h, the upper plate of the transwell system is removed and the cell suspension in the receiver plate is transferred to a 96-well V-bottom plate. 50 μL of DPBS is added to the receiver plate to prevent remaining cells from drying out. The V-bottom plate is centrifuged for 6 minutes at 1500 rpm. The supernatant is removed and the cells are resuspended in 50 μL DPBS. The cells are then transferred back to the receiver plate of the transwell system. After this, 100 μL ATPlite solution (Perkin Elmer, Cat. No: 436110) was added to the cells. The plate is incubated for 10 minutes in the dark, while shaking. […] of cell lysate is then transferred to a white 96-well plate and luminescence is measured. The detected luminescent signal is considered as linearely related to the number of cells having migrated from the upper well to the receiver well.
For orientation: ATP-based viability assays read luminescence as a measure of living cells.

Molecules are shown by their SMILES.

We go through 22 molecules from US10047083B2, “Dihydropyrimidinoisoquinolinones and pharmaceutical compositions thereof for the treatment of inflammatory disorders” (GALAPAGOS NV, priority 2011, dated 2018).

T1 sequence (Q9NQS5 whole entry): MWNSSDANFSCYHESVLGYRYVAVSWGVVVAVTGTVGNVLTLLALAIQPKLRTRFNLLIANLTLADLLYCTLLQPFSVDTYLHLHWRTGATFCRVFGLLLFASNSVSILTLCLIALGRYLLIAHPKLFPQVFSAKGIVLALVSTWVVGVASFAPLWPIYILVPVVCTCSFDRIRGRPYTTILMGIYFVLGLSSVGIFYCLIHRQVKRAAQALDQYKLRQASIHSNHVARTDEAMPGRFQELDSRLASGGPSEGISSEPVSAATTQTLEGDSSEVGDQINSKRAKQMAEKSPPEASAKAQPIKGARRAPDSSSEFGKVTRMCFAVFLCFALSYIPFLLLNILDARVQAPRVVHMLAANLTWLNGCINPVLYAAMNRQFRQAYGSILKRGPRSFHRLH

Regarding `O=c1nc(OC[C@@H]2COCCO2)cc2n1CCc1cc(OCC3CCCCO3)ccc1-2` (stereo partly drawn) [Compound 139, 2-((S)-1-[1,4]dioxan-2-ylmethoxy)-9-(tetrahydro-pyran-2-ylmethoxy)-6,7-dihydro-pyrimido[6,1-a]isoquinolin-4-one], the IC50 in experiment [1] and in experiment [2] was 0.01 to 100 nM each time.
Consider `CC(C)OCCOc1ccc2c(c1)CCn1c-2cc(OC[C@@H]2COCCO2)nc1=O` [Compound 171, 2-((S)-1-[1,4]Dioxan-2-ylmethoxy)-9-(2-isopropoxy-ethoxy)-6,7-dihydro-pyrimido[6,1-a]isoquinolin-4-one], for which the IC50 in experiment [1] and in experiment [2] was 0.01 to 100 nM in each case.
Turning to `CC(C)(C)COc1ccc2c(c1)CCn1c-2cc(OC[C@@H]2COCCO2)nc1=O` [Compound 158, 9-(2,2-dimethyl-propoxy)-2-((S)-1-[1,4]dioxan-2-ylmethoxy)-6,7-dihydro-pyrimido[6,1-a]isoquinolin-4-one], the IC50 in experiment [1] lay in the range of 101 to 500 nM; in experiment [2], 0.01 to 100 nM.
Consider `O=c1nc(OCC2COCCO2)cc2n1CCc1cc(-c3ccc(N4CCCCC4)nc3)ccc1-2` (centres unmarked) [Compound 68, 2-([1,4]dioxan-2-ylmethoxy)-9-(3,4,5,6-tetrahydro-2H-[1,2′]bipyridinyl-5′-yl)-6,7-dihydro-pyrimido[6,1-a]isoquinolin-4-one], for which the IC50 in experiment [1] and in experiment [2] was 0.01 to 100 nM in each case.
As for `CC(C)Oc1ccc(-c2ccc3c(c2)CCn2c-3cc(OCC3COCCO3)nc2=O)cn1` (centres unmarked) [Compound 60, 2-([1,4]Dioxan-2-ylmethoxy)-9-(6-isopropoxy-pyridin-3-yl)-6,7-dihydro-pyrimido[6,1-a]isoquinolin-4-one], the IC50 in experiment [1] and in experiment [2] was 0.01 to 100 nM in each case.
Consider `CC(C)C#Cc1ccc2c(c1)CCn1c-2cc(OC[C@@H]2COCCO2)nc1=O` [Compound 112, 2-((S)-1-[1,4]dioxan-2-ylmethoxy)-9-(3-methyl-but-1-ynyl)-6,7-dihydro-pyrimido[6,1-a]isoquinolin-4-one], for which the IC50 in experiment [1] and in experiment [2] was 0.01 to 100 nM throughout.
Take `CCCC(O)C#Cc1ccc2c(c1)CCn1c-2cc(OCC2COCCO2)nc1=O` (centres unmarked) [Compound 98, 2-([1,4]dioxan-2-ylmethoxy)-9-(3-hydroxy-hex-1-ynyl)-6,7-dihydro-pyrimido[6,1-a]isoquinolin-4-one]: the IC50 in experiment [1] and in experiment [2] was 0.01 to 100 nM throughout.
In the case of `O=c1nc(OCC2COCCO2)cc2n1CCc1cc(CCC(O)c3cccnc3)ccc1-2` (centres unmarked) [Compound 116, 2-([1,4]dioxan-2-ylmethoxy)-9-(3-hydroxy-3-pyridin-3-yl-propyl)-6,7-dihydro-pyrimido[6,1-a]isoquinolin-4-one], the IC50 was in the range of 101 to 500 nM in experiment [1] and 0.01 to 100 nM in experiment [2].
On to `CC(C)(C)C#Cc1ccc2c(c1)CCn1c-2cc(OCC2COCCO2)nc1=O` (centres unmarked) [Compound 52, 9-(3,3-Dimethyl-but-1-ynyl)-2-([1,4]dioxan-2-ylmethoxy)-6,7-dihydro-pyrimido[6,1-a]isoquinolin-4-one], for which the IC50 in experiment [1] and in experiment [2] was 0.01 to 100 nM each time.
Take `N#CCOc1ccc2c(c1)CCn1c-2cc(OCC2COCCO2)nc1=O` (centres unmarked) [Compound 7, [2-([1,4]dioxan-2-ylmethoxy)-4-oxo-6,7-dihydro-4H-pyrimido[6,1-a]isoquinolin-9-yloxy]-acetonitrile]: the IC50 in experiment [1] and in experiment [2] was 101 to 500 nM in each case.
Regarding `O=c1nc(OCC2COCCO2)cc2n1CCc1cc(-c3ccc(N4CCOCC4)nc3)ccc1-2` (centres unmarked) [Compound 62, 2-([1,4]dioxan-2-ylmethoxy)-9-(6-morpholin-4-yl-pyridin-3-yl)-6,7-dihydro-pyrimido[6,1-a]isoquinolin-4-one], the IC50 in experiment [1] and in experiment [2] was 0.01 to 100 nM each time.
For the molecule `CC(O)CCc1ccc2c(c1)CCn1c-2cc(OC[C@@H]2COCCO2)nc1=O` (stereo partly drawn) [Compound 140, 2-((S)-1-[1,4]dioxan-2-ylmethoxy)-9-(3-hydroxy-butyl)-6,7-dihydro-pyrimido[6,1-a]isoquinolin-4-one], the values for the IC50 in experiment [1] and in experiment [2] were 101 to 500 nM and 0.01 to 100 nM, respectively.
In the case of `CC(C)(C)OCc1ccc2c(c1)CCn1c-2cc(OCC2COCCO2)nc1=O` (centres unmarked) [Compound 72, 9-tert-butoxymethyl-2-([1,4]dioxan-2-ylmethoxy)-6,7-dihydro-pyrimido[6,1-a]isoquinolin-4-one], the IC50 in experiment [1] and in experiment [2] was 0.01 to 100 nM in each case.
Consider `O=c1nc(OCC2COCCO2)cc2n1CCc1cc(OCc3ccccn3)ccc1-2` (centres unmarked) [Compound 9, 2-([1,4]dioxan-2-ylmethoxy)-9-(pyridin-2-ylmethoxy)-6,7-dihydro-pyrimido[6,1-a]isoquinolin-4-one], for which the IC50 in experiment [1] and in experiment [2] was 0.01 to 100 nM throughout.
In the case of `CC(C)c1nc(COc2ccc3c(c2)CCn2c-3cc(OCC3COCCO3)nc2=O)no1` (centres unmarked) [Compound 80, 2-([1,4]dioxan-2-ylmethoxy)-9-(5-isopropyl-[1,2,4]oxadiazol-3-ylmethoxy)-6,7-dihydro-pyrimido[6,1-a]isoquinolin-4-one], the IC50 in experiment [1] and in experiment [2] was 0.01 to 100 nM in each case.
For `COc1cccc(-c2ccc3c(c2)CCn2c-3cc(OCC3COCCO3)nc2=O)c1OC` (centres unmarked) [Compound 63, 9-(2,3-dimethoxy-phenyl)-2-([1,4]dioxan-2-ylmethoxy)-6,7-dihydro-pyrimido[6,1-a]isoquinolin-4-one], the IC50 was 101 to 500 nM in experiment [1] and 0.01 to 100 nM in experiment [2].
Turning to `O=c1nc(OCC2COCCO2)cc2n1CCc1cc(C#Cc3cccnc3)ccc1-2` (centres unmarked) [Compound 41, 2-([1,4]dioxan-2-ylmethoxy)-9-pyridin-3-ylethynyl-6,7-dihydro-pyrimido[6,1-a]isoquinolin-4-one], the IC50 in experiment [1] was 101 to 500 nM; in experiment [2] it was 0.01 to 100 nM.
For `CCOc1ncccc1-c1ccc2c(c1)CCn1c-2cc(OCC2COCCO2)nc1=O` (centres unmarked) [Compound 69, 2-([1,4]dioxan-2-ylmethoxy)-9-(2-ethoxy-pyridin-3-yl)-6,7-dihydro-pyrimido[6,1-a]isoquinolin-4-one] the same measures were 0.01 to 100 nM and 0.01 to 100 nM.
As for `CCC(O)C#Cc1ccc2c(c1)CCn1c-2cc(OCC2COCCO2)nc1=O` (centres unmarked) [Compound 89, 2-([1,4]dioxan-2-ylmethoxy)-9-(3-hydroxy-pent-1-ynyl)-6,7-dihydro-pyrimido[6,1-a]isoquinolin-4-one], the IC50 lay within 101 to 500 nM in experiment [1] and 0.01 to 100 nM in experiment [2].
As to `O=c1nc(OC[C@H]2COCCO2)cc2n1CCc1cc(CCC3(O)CCCC3)ccc1-2` [Compound 169, 2-((R)-1-[1,4]Dioxan-2-ylmethoxy)-9-[2-(1-hydroxy-cyclopentyl)-ethyl]-6,7-dihydro-pyrimido[6,1-a]isoquinolin-4-one], the IC50 in experiment [1] was in the range of 101 to 500 nM; in experiment [2], 0.01 to 100 nM.
As for `O=c1nc(OC[C@H]2COCCO2)cc2n1CCc1cc(CCC3CC3)ccc1-2` [Compound 114, 9-(2-cyclopropyl-ethyl)-2-((R)-1-[1,4]dioxan-2-ylmethoxy)-6,7-dihydro-pyrimido[6,1-a]isoquinolin-4-one], the IC50 in experiment [1] and in experiment [2] was 0.01 to 100 nM each time.
As for `O=c1nc(OCC2COCCO2)cc2n1CCc1cc(OCc3ncco3)ccc1-2` (centres unmarked) [Compound 8, 2-([1,4]dioxan-2-ylmethoxy)-9-(oxazol-2-ylmethoxy)-6,7-dihydro-pyrimido[6,1-a]isoquinolin-4-one], the IC50 in experiment [1] and in experiment [2] was 101 to 500 nM each time.
